# Laboratory results as given in patent publication US20160193219A1, “SUBSTITUTED 2,3-DIHYDROIMIDAZO[1,2-C]QUINAZOLINE SALTS” (priority 2011, published 2016).
# Where a name gives a salt, the structure may show the parent alone. Read-outs that look alike come from different tables or passages of the source.
# How the values were obtained:
# [1] = Stability as solid (stored at 90° C. for 1 week, HPLC); type: physicochemical; conditions: for therm. stab. solid: 1 w @ 90° C.; for sum of impurities: HPLC area
# [2] = 16 h
# [3] = for pH: Saturated solution in water; for XRPD (solid residue): solid retained on filter after 20 h in water at 25° C.
# Crystallinity by XRPD = type: physicochemical
# BT474 = assay: Proliferation assay (Cell Titer-Glo, 72 h), BT474; conditions: BT474, Breast, dihydrochloride
# MCF7 = assay: Proliferation assay (Cell Titer-Glo, 72 h), MCF7; conditions: MCF7, Breast, dihydrochloride
# BT20 = assay: Proliferation assay (Cell Titer-Glo, 72 h), BT20; conditions: BT20, Breast, dihydrochloride
# physchem = conditions: 25 °C, water, thermodynamic from solid
# H460 = assay: Proliferation assay (Cell Titer-Glo, 72 h), H460; conditions: H460, Lung, dihydrochloride
# MDA-MB-468 = assay: Proliferation assay (Cell Titer-Glo, 72 h), MDA-MB-468; conditions: MDA-MB-468, Breast, dihydrochloride
# Colo205 = assay: Proliferation assay (Cell Titer-Glo, 72 h), Colo205; conditions: Colo205, Colon, dihydrochloride
# [4] = Additional solubility data in different solvents (20 h at 25° C.); type: physicochemical
# Protocol: The dihydrochloride of formula (II) was stirred in 20 mL of different solvents for 20 h at 25° C. In all hydrous solvents approx. 2 g of the dihydrochloride of formula (II) have been solved completely.
# 786O = assay: Proliferation assay (Cell Titer-Glo, 72 h), 786O; conditions: Kidney, dihydrochloride
# A549 = assay: Proliferation assay (Cell Titer-Glo, 72 h), A549; conditions: A549, Lung, dihydrochloride
# T47D = assay: Proliferation assay (Cell Titer-Glo, 72 h), T47D; conditions: Breast, dihydrochloride
# LNCaP = assay: Proliferation assay (Cell Titer-Glo, 72 h), LNCaP; conditions: Prostate, dihydrochloride
# SK-Br-3 = assay: Proliferation assay (Cell Titer-Glo, 72 h), SK-Br-3; conditions: SK-Br-3, Breast, dihydrochloride
# HCT116 = assay: Proliferation assay (Cell Titer-Glo, 72 h), HCT116; conditions: HCT116, Colon, dihydrochloride
# PC3 = assay: Proliferation assay (Cell Titer-Glo, 72 h), PC3; conditions: PC3, Prostate, dihydrochloride
# [5] = system: 16 tumor cell lines covering 6 cancer indications; assay: Proliferation assays, panel of 16 tumor cell lines; type: cell-based; conditions: all the tumor cell lines tested (panel of 16)
# Protocol: Cell proliferation is determined using the Cell Titer-Glo luminescent cell viability kit from Promega (Cat. #G7573) after 72 hours exposure to the drugs. Briefly, cells were plated at 500-1000 cells/well of 384-well plates in 25 μL growth medium. For each cell line assayed, cells were plated into a separate plate for determination of luminescence at the t=0 hours and t=72 hour time points. […] Dose plates for t=72 hour time points were treated with compounds diluted into growth medium in a final volume of 30 μL. Cells were then incubated for 72 hours at 37° C. Luminescence values for the t=72 hour samples were determined by adding 30 μL of Promega CellTiter-Glo solution, placing the cells on a shaker for 10 minutes at room temperature, and then reading the luminescence using a Victor luminometer. For data processing, t=0 values are subtracted from those determined for the t=72 hour time points, for both the treated and untreated samples. Percent differences in luminescence between drug treated and controls are used to determine percent inhibition of growth.
# HT29 = assay: Proliferation assay (Cell Titer-Glo, 72 h), HT29; conditions: HT29, Colon, dihydrochloride
# [6] = solid stored at 90° C. for 1 week
# [7] = listed as Hydrochloric acid (Ex. 1), dihydrochloride
compound,measurement,setting,value
COc1c(OCCCN2CCOCC2)ccc2c1N=C(NC(=O)c1cnc(N)nc1)N1CCN=C21.CS(=O)(=O)O.CS(=O)(=O)O [Comparative Example 6],therm. stab. solid,[1],+
same,"HPLC, area % DS",[1]; [6],~96.7% (sum of
same,"HPLC, wt % DS",[1]; [6],59.5 wt %
same,sum of impurities,[1]; [6],impurities ~3.3%)
same,aqu. solubility,[2],>8.3 mg/100 ml
same,pH,[3],~2.3
COc1c(OCCCN2CCOCC2)ccc2c1N=C(NC(=O)c1cnc(N)nc1)N1CCN=C21.O=C(O)/C=C\C(=O)O.O=C(O)/C=C\C(=O)O [Comparative Example 5],therm. stab. solid,[1],+
same,"HPLC, area % DS",[1]; [6],~96.9% (sum of
same,"HPLC, wt % DS",[1]; [6],59.4 wt %
same,sum of impurities,[1]; [6],impurities ~3.1%)
same,aqu. solubility,[2],>8.1 mg/100 ml
same,pH,[3],3.1
same,XRPD (solid residue),[3],crystalline
same,crystallinity,Crystallinity by XRPD,+
"COc1c(OCCCN2CCOCC2)ccc2c1N=C(NC(=O)c1cnc(N)nc1)N1CCN=C21 [dihydrochloride salt of formula (II), 2-amino-N-[7-methoxy-8-(3-morpholin-4-ylpropoxy)-2,3-dihydroimidazo[1,2-c]quinazolin-5-yl]pyrimidine-5-carboxamide dihydrochloride]",IC50,BT474,10 nM
same,therm. stab. solid,[1]; [7],+
same,"HPLC, area % DS",[1]; [6],~98.2%; sum of
same,"HPLC, wt % DS",[1]; [6],~65.6 wt %
same,Stability as solid (Comments),[1]; [6],Stable
same,sum of impurities,[1]; [6],impurities ~1.8%
same,IC50,MCF7,9 nM
same,IC50,BT20,2 nM
same,solubility thermodynamic at 16 h,physchem,> 88 µg/mL
same,IC50,H460,67 nM
same,IC50,MDA-MB-468,256 nM
same,pH,[3],~2.4
same,XRPD (solid residue),[3],crystalline
same,Solubility,"[3]; water, 25° C., 20 h, HPLC",>8.8 mg/100 ml
same,IC50,Colo205,110 nM
same,Solubility,"[4]; 0.1M HCl, 20 h at 25° C.",≧8800 mg/100 ml soluble
same,Solubility,"[4]; Acetone, 20 h at 25° C.",0.3 mg/100 ml practically insoluble
same,Solubility,"[4]; Acetonitrile, 20 h at 25° C.",1.1 mg/100 ml practically insoluble
same,Solubility,"[4]; Buffer pH 4.5, 20 h at 25° C.",≧8900 mg/100 ml soluble
same,Solubility,"[4]; Buffer pH 7.0, 20 h at 25° C.",≧8700 mg/100 ml soluble
same,Solubility,"[4]; Ethanol, 20 h at 25° C.",24.8 mg/100 ml very slightly soluble
same,Solubility,"[4]; PEG400, 20 h at 25° C.",301 mg/100 ml slightly soluble
same,Solubility,"[4]; Water, 20 h at 25° C.",≧9400 mg/100 ml soluble
same,IC50,786O,247 nM
same,IC50,A549,44 nM
same,IC50,T47D,2 nM
same,IC50,LNCaP,67 nM
same,IC50,SK-Br-3,1 nM
same,IC50,HCT116,72 nM
same,crystallinity,Crystallinity by XRPD; [7],++
same,IC50,PC3,90 nM
same,difference in the IC50 values (free base vs dihydrochloride salt),[5],less than 3 fold
same,IC50,HT29,10 nM
